Source: US20070053834A1, “Radioligands for the TRP-M8 receptor and methods therewith” (priority 2003, published 2007)
pEC50: −log10 of the molar value.

biological target: T1, TRP-M8 receptor (Homo sapiens, UniProt Q7Z2W7); assay: FLIPR calcium influx assay in HEK cells transfected with human TRP-M8; type: cell-based; parameters: expressed in transfected cells; host or cells: HEK (human embryonic kidney) cells, permanently transfected; conditions: HEK cells with human TRP-M8, Fura-2, 29 or 37° C.
Excerpt: (§1) Cooling Actions on Skin. […] In Vitro Assays for TRP-M8 Activation. […] Brit. J Pharmacol. 2004 Feb; 141(4):737-45], and by A. K. Vogt-Eisele, D. Bura, H. Hatt, and E. T. Wei. [N-Alkylcarboxamide Cooling Agents: Activities on Skin and Cells with TRPM8 and TRPA1 Receptors. Acta Dermato-Venereol. 85: 468, 2005.] The data here were collected for the applicant by Dr. Afrodite Lourbakos of Unilever Research and Development, the Netherlands, using similar transfection methods and a FLIPR assay system. For the patch-clamp studies, using measurements of intracellular voltage changes, some of the data reported here were collected by Dr. Matthias Bödding of the University of the Saarland, and by Dr. Angela Vogt-Eisele of the Ruhr University at Bochum, Germany. FLIPR assay Human embryonic kidney (HEK) cells were permanently trausfected with plasmids containging the cDNA coding for the gene for the human TRP-M8 receptor. These cells were then incubated with a calcium fluorescence indicator (Fura-2) and incubated at either 29 or 37° C. These cells were then distributed into a 96-well fluorescence-plate image reader with automated drug dilution and computerized software for dose-response analysis. Cacium ion influx into cells after stimulation with compounds was quantified in fluorescence units. Compounds were dissolved in DMSO by ultrasonication to a 0.1 M solution. 5 μl of this stock was added to 5 mg of cyclodextrin and 5 ml of 140 Na-Tyrode, to achieve various final test concentrations.

T1 sequence (Q7Z2W7 whole entry): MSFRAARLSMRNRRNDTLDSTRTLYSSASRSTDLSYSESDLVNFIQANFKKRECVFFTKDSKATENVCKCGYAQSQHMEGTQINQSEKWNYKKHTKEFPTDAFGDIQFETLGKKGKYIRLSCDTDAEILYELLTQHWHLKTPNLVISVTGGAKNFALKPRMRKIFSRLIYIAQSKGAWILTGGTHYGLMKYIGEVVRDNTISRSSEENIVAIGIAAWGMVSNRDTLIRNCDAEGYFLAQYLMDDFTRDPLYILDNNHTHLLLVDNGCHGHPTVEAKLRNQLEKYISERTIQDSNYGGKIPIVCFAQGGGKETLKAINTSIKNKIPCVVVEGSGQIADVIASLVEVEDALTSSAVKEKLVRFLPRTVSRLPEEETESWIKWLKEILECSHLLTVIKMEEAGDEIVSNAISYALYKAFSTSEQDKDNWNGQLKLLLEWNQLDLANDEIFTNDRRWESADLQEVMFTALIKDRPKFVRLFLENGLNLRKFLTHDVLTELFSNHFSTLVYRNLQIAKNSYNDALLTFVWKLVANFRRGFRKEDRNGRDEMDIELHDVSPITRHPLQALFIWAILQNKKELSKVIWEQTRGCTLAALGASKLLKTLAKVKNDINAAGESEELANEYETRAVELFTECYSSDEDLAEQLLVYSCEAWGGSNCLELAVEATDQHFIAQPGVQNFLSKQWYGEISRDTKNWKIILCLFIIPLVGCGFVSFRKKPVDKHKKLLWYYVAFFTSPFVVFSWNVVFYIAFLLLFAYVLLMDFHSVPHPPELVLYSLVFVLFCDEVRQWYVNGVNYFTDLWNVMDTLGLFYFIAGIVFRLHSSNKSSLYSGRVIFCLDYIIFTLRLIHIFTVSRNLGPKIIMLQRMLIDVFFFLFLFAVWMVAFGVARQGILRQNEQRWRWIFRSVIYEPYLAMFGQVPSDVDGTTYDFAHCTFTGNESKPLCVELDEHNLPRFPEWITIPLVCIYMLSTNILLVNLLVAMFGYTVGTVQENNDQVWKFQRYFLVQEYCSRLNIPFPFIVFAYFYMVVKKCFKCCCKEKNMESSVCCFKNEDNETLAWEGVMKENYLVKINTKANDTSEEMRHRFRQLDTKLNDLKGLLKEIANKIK

SMILES	pEC50
COc1ccc(NC(=O)C2CC(C)CCC2C(C)C)cc1 (stereo not drawn) [CPS-112 (WS-12), N-(4′-methoxyphenyl)-2-isopropyl-5-methylcyclohexanecarboxamide]	6.22
O=C1NC(c2cccc([N+](=O)[O-])c2)=CCN1c1ccccc1O [icilin, reference compound]	6.10
CC1CCC(C(C)C)C(C(=O)Nc2ccc([N+](=O)[O-])c(C(F)(F)F)c2)C1 (stereo not drawn) [CPS-138]	< 4.00

Continued, values first:

pEC50	SMILES
5.00	CC1CCC(C(C)C)C(C(=O)Nc2ccc(I)cc2)C1 (stereo not drawn) [CPS-120]
5.22	CC1CCC(C(C)C)C(C(=O)Nc2ccc(Br)cc2)C1 (stereo not drawn) [CPS-123]
5.89	COc1ccc(NC(=O)C2CC(C)CCC2C(C)C)cc1F (stereo not drawn) [CPS-113, N-(3′-fluoro, 4′-methoxyphenyl)-2-isopropyl-5-methyl-cyclohexanecarboxamide]
6.30	CCOc1ccc(NC(=O)C2CC(C)CCC2C(C)C)cc1 (stereo not drawn) [CPS-128]
5.22	COc1cccc(NC(=O)C2CC(C)CCC2C(C)C)c1 (stereo not drawn) [CPS-141]
5.22	CC1CCC(C(C)C)C(C(=O)Nc2ccc(S(=O)(=O)Nc3ncccn3)cc2)C1 (stereo not drawn) [CPS-125, 2-Isopropyl-5-methyl-cyclohexanecarboxylic acid [4-(pyrimidin-2-ylsulfamoyl)-phenyl]-amide]
5.89	CC1CCC(C(C)C)C(C(=O)Nc2ccc(F)cc2)C1 (stereo not drawn) [CPS-124, N-(4′-fluorophenyl)-2-isopropyl-5-methylcyclohexanecarboxamide]
< 4.00	CC1CCC(C(C)C)C(C(=O)Nc2ccc(OC(F)(F)F)cc2)C1 (stereo not drawn) [CPS-127]

biological target: T1, TRP-M8 receptor; assay: Patch-clamp whole-cell recordings in TRP-M8 transfected HEK cells; type: cell-based; parameters: expressed in transfected cells; host or cells: HEK (human embryonic kidney) cells, permanently transfected; conditions: whole-cell configuration, room temperature (20-23° C.)
Excerpt: as §1
Patch-Clamp Electrophysiological Recordings. HEK cells were prepared as above. Membrane currents were recorded in the whole-cell configuration using an EPC-9 amplifier (HEKA Elektronik, Lambrecht, Germany) as described previously (Bödding et al. 2002). […] Extracellular solution contained (in mM): 145 NaCl, 2 CaCl2, 2.8 KCl, 2 MgCl2, 11 glucose, 10 HEPES, adjusted to pH 7.2 with NaOH. Drugs were applied in the bath solution by a custom-made local perfusion system. The series resistance was compensated for 80 % and ranged between 5 and 10 MΩ. Currents were filtered using an 8-pole Bessel filter at 2.9 kHz and digitised at 100 μs. Voltage ramps (−110 mV to 90 mV in 50 ms) were applied at 0.5 Hz from a holding potential of −10 mV using PULSE software (HEKA Electronics). Several parameters such as capacitance, series resistance and holding current were monitored simultaneously at a slower rate (2 Hz) using the X-Chart display (HEKA Electronics). A liquid junction potential of 10 mV was applied to all voltages. All experiments were carried out at room temperature (20-23° C.). Internal solutions were kept on ice to minimize hydrolysis of ATP.

SMILES	pEC50
COc1ccc(NC(=O)C2CC(C)CCC2C(C)C)cc1 (stereo not drawn) [CPS-112 (WS-12), N-(4′-methoxyphenyl)-2-isopropyl-5-methylcyclohexanecarboxamide]	6.70
O=C1NC(c2cccc([N+](=O)[O-])c2)=CCN1c1ccccc1O [icilin, reference compound]	5.85

The next lines start with the values.

pEC50	SMILES
5.92	COc1ccc(NC(=O)C2CC(C)CCC2C(C)C)cc1F (stereo not drawn) [CPS-113, N-(3′-fluoro, 4′-methoxyphenyl)-2-isopropyl-5-methyl-cyclohexanecarboxamide]
6.52	COc1ccc(NC(=O)C2CC(C)CCC2C(C)C)c(I)c1 (stereo not drawn) [CPS-129, N-(2′-iodo-4′methoxyphenyl)-2-isopropyl-5-methylcyclohexanecarboxamide]
7.00	CC1CCC(C(C)C)C(C(=O)N(C)C[C@H](O)c2cccc(O)c2)C1 (stereo partly drawn) [CPS-195, 2-Isopropyl-5-methyl-cyclohexanecaboxylic acid [2-hydroxy-2-(3-hydroxy-phenyl)-ethyl]-methyl-amide]
5.52	CC1CCC(C(C)C)C(C(=O)Nc2ccc(S(=O)(=O)Nc3ncccn3)cc2)C1 (stereo not drawn) [CPS-125, 2-Isopropyl-5-methyl-cyclohexanecarboxylic acid [4-(pyrimidin-2-ylsulfamoyl)-phenyl]-amide]
5.92	CC1CCC(C(C)C)C(C(=O)Nc2ccc(F)cc2)C1 (stereo not drawn) [CPS-124, N-(4′-fluorophenyl)-2-isopropyl-5-methylcyclohexanecarboxamide]

biological target: T1, TRP-M8 receptor; assay: Cold sensation threshold on tongue (filter paper test); type: in vivo; parameters: The endogenous TRP-M8 receptor is a physiological receptor designed to detect temperature changes; from tissue; host or cells: tongue (sensory nerve endings), in vivo; conditions: filter paper 1 × 1 cm impregnated with compound, on tongue, 30 sec; presence or absence of cooling
Excerpt: In Vivo Assays for TRP-M8 Activation. The endogenous TRP-M8 receptor is a physiological receptor designed to detect temperature changes in its environment and to transmit this signal to the central nervous system so that appropriate regulatory responses can be initiated (e.g. vasoconstriction to reduce heat loss, putting on warmer clothing, avoiding the cold environment).
The TRP-M8 receptor on cold sensory nerve endings and on malignant cells, for example in the prostate, are biochemically identical proteins. Thus, the potency of a molecule to elicit cold sensations, for example on the tongue or skin, was used as surrogate index of the binding affinity of the molecule for the TRP-M8 receptor. A number of potent “N-radiohaloaryl-carboxamides” were synthesized and tested for use as precursors of the inventive compounds and the results are shown in Table 1.

Cold Sensation Threshold on Tongue	SMILES
1 µg	CC1CCC(C(C)C)C(C(=O)Nc2ccc(O)cc2)C1 (stereo not drawn) [N-(4′-hydroxyphenyl)-2-isopropyl-5-methylcyclohexanecarboxamide]
20 µg	CC1CCC(C(C)C)C(C(=O)NCc2ccccc2)C1 (stereo not drawn) [N-phenylmethyl-2-isopropyl-5-methylcyclohexanecarboxamide]
8 µg	CC1CCC(C(C)C)C(C(=O)Nc2ccc(Cl)cc2)C1 (stereo not drawn) [N-(4′-chlorophenyl)-2-isopropyl-5-methylcyclohexanecarboxamide]
20 µg	CC1CCC(C(C)C)C(C(=O)Nc2ccccc2)C1 (stereo not drawn) [N-phenyl-2-isopropyl-5-methylcyclohexanecarboxamide]
0.1 µg	Cc1ccc(NC(=O)C2CC(C)CCC2C(C)C)cc1O (stereo not drawn) [N-(3′-hydroxy-4′-methylphenyl)-2-isopropyl-5-methylcyclohexanecarboxamide]
0.5 µg	CC1CCC(C(C)C)C(C(=O)Nc2ccc(F)cc2)C1 (stereo not drawn) [N-(4′-fluorophenyl)-2-isopropyl-5-methylcyclohexanecarboxamide]
5 µg	COc1ccc(NC(=O)C2(C(C)C)CCCCCC2)cc1OC [N-(3′,4′-dimethoxyphenyl)-1-isopropylcycloheptanecarboxamide]
2 µg	COc1ccc(NC(=O)C(C)(CC(C)C)C(C)C)cc1 (stereo not drawn) [N-(4′-methoxyphenyl)-2-isopropyl-2,4-dimethylpentanamide]
5 µg	CCOC(=O)c1ccc(NC(=O)C2CC(C)CCC2C(C)C)cc1 (stereo not drawn) [N-(4′-ethoxycarbonylphenyl)-2-isopropyl-5-methylcyclohexanecarboxamide]
0.1 µg	COc1ccc(NC(=O)C2CC(C)CCC2C(C)C)cc1 (stereo not drawn) [N-(4′-methoxyphenyl)-2-isopropyl-5-methylcyclohexanecarboxamide]
0.5 µg	CC1CCC(C(C)C)C(C(=O)Nc2ccccc2O)C1 (stereo not drawn) [N-(2′-hydroxyphenyl)-2-isopropyl-5-methylcyclohexanecarboxamide]
1 µg	Cc1ccc(NC(=O)C2(C(C)C)CCCCCC2)cc1O [N-(3′-hydroxy-4′-methylphenyl)-1-isopropylcycloheptanecarboxamide]
2 µg	CC(=O)c1ccc(NC(=O)C2CC(C)CCC2C(C)C)cc1 (stereo not drawn) [N-(4′-acetylphenyl)-2-isopropyl-5-methylcyclohexanecarboxamide]
15 µg	Cc1ccc(NC(=O)C2(C(C)C)CCCCCC2)c(C)c1 [N-(2′,4′-dimethylphenyl)-1-isopropylcycloheptanecarboxamide]
15 µg	Cc1ccc(NC(=O)C2(C(C)C)CCCCCC2)cc1C [N-(3′,4′-dimethylphenyl)-1-isopropylcycloheptanecarboxamide]
0.2 µg	COc1ccc(NC(=O)C2(C(C)C)CCCCCC2)c(C)c1 [N-(4′-methoxy-2′-methylphenyl)-1-isopropylcycloheptanecarboxamide]
0.1 µg	Cc1ccc(NC(=O)C2CC(C)CCC2C(C)C)c(C)c1 (stereo not drawn) [N-(2′,4′-dimethylphenyl)-2-isopropyl-5-methylcyclohexanecarboxamide]
3 µg	Cc1ccc(NC(=O)C(C)(C(C)C)C(C)C)cc1C [N-(3′,4′-dimethylphenyl)-2-isopropyl-2,3-dimethylbutyramide]
6 µg	CCC1(C(=O)Nc2ccc(OC)cc2)CCCCCC1C (stereo not drawn) [N-(4′-methoxyphenyl)-1-ethyl-2-methylcycloheptanecarboxamide]
0.3 µg	CC1CCC(C(C)C)C(C(=O)Nc2ccc([N+](=O)[O-])cc2)C1 (stereo not drawn) [N-(4′-nitrophenyl)-2-isopropyl-5-methylcyclohexanecarboxamide]
1 µg	Cc1ccc(NC(=O)C(C)(C(C)C)C(C)C)c(C)c1 [N-(2′,4′-dimethylphenyl)-2-isopropyl-2,3-dimethylbutyramide]
0.5 µg	COc1ccc(NC(=O)C(C)(C(C)C)C(C)C)cc1 [N-(4′-methoxyphenyl)-2-isopropyl-2,3-dimethylbutyramide]

same assay, conditions: oral

oral cooling threshold	SMILES
0.2 µg	CCNC(=O)C1CC(C)CCC1C(C)C (stereo not drawn) [N-ethyl p-menthane-3-carboxamide, reference compound]
1.1 µg	CNC(=O)C1CC(C)CCC1C(C)C (stereo not drawn) [N-methyl p-menthane-3-carboxamide, reference compound]
